Reference: ChEMBL document CHEMBL5550185, “Targeting hTERT Promoter G-Quadruplex DNA Structures with Small-Molecule Ligand to Downregulate hTERT Expression for Triple-Negative Breast Cancer Therapy” (J Med Chem, 2024)
The source made the active and inactive calls. No cut-off for these calls is given here.

Columns and labels:
MDA-MB-231 [1] = experiment: Induction of mitochondrial dysfunction in human MDA-MB-231 cells assessed as downregulation of mitochondrial respiratory complex IV-COX II expression incubated for 48 hrs by Western blot analysis; assay type: functional, cell-based; conditions: dose 0-1.5 µM
MDA-MB-231 [2] = experiment: Downregulation of ND3 gene expression in human MDA-MB-231 cells at 1 uM measured after 48 hrs by RNA-seq analysis; assay type: functional, cell-based
[3] = Toxicity in female Balb/c nude mouse xenografted with human MDA-MB-231 cells assessed as signs of poor health at 2 to 5 mg/kg, iv administered via tail vein every 2 days for 16 days; assay type: organism-based; conditions: in vivo, 384 h, dose 2-5 mg/kg, time 16 day
DNA = experiment: Binding affinity to Ds26 duplex DNA (unknown origin) assessed as dissociation constant by ITC analysis; assay type: nucleic-acid assay
MDA-MB-231 [4] = experiment: Downregulation of c-MYC mRNA expression in human MDA-MB-231 cells at 0 to 1.5 uM measured after 48 hrs by qRT-PCR analysis; assay type: functional, cell-based; conditions: dose 0-1.5 µM
MDA-MB-231 [5] = experiment: Induction of mitochondrial dysfunction in human MDA-MB-231 cells assessed as downregulation of mitochondrial respiratory complex III-UQCRC2 expression incubated for 48 hrs by Western blot analysis; assay type: functional, cell-based; conditions: dose 0-1.5 µM
[6] = Toxicity in female Balb/c nude mouse xenografted with human MDA-MB-231 cells assessed as change in mean corpuscular hemoglobin concentration at 2 to 5 mg/kg, iv administered via tail vein every 2 days for 16 days; assay type: organism-based; conditions: in vivo, 384 h, dose 2-5 mg/kg, time 16 day
[7] = Upregulation of TGFB2 gene expression in human MDA-MB-231 cells assessed as fold change at 1 uM measured after 48 hrs by RNA-seq analysis relative to control; assay type: functional
MDA-MB-231 [8] = experiment: Antitumor activity against human MDA-MB-231 cells xenografted in iv dosed female Balb/c mouse assessed as nucleolysis in tumor administered via tail vein every 2 days for 16 days by H and E staining based analysis; assay type: functional, organism-based; conditions: dose 2-5 mg/kg, time 16.0 day
MDA-MB-231 [9] = experiment: Induction of DNA damage in human MDA-MB-231 cells assessed as upregulation of 53BP1 protein expression measured after 48 hrs by Western blot analysis; assay type: functional, cell-based; conditions: dose 0-1.5 µM
[10] = Upregulation of IRS1 gene expression in human MDA-MB-231 cells assessed as fold change at 1 uM measured after 48 hrs by RNA-seq analysis relative to control; assay type: functional
[11] = Toxicity in female Balb/c nude mouse xenografted with human MDA-MB-231 cells assessed as pathological changes in liver at 2 to 5 mg/kg, iv administered via tail vein every 2 days for 16 days by H and E staining based analysis; assay type: organism-based; conditions: in vivo, 384 h, dose 2-5 mg/kg, time 16 day
Quadruplex DNA [12] = experiment: Binding affinity to VEGF G4 DNA (unknown origin) assessed as thermal stability by measuring change in melting temperature at 400 uM […]; assay type: nucleic-acid assay
[13] = Toxicity in female Balb/c nude mouse xenografted with human MDA-MB-231 cells assessed as change in hemoglobin concentration at 2 to 5 mg/kg, iv administered via tail vein every 2 days for 16 days; assay type: organism-based; conditions: in vivo, 384 h, dose 2-5 mg/kg, time 16 day
MDA-MB-231 [14] = experiment: Downregulation of ND4 gene expression in human MDA-MB-231 cells at 1 uM measured after 48 hrs by RNA-seq analysis; assay type: functional, cell-based
[15] = Upregulation of CCNB1 gene expression in human MDA-MB-231 cells assessed as fold change at 1 uM measured after 48 hrs by RNA-seq analysis relative to control; assay type: functional
[16] = Upregulation of CALML6 gene expression in human MDA-MB-231 cells assessed as fold change at 1 uM measured after 48 hrs by RNA-seq analysis relative to control; assay type: functional
Quadruplex DNA [17] = experiment: Binding affinity to G4 DNA in telomerase-positive live human MDA-MB-231 cells assessed as colocalization of BG4 and compound at 5 uM incubated for 2 hrs by immunofluorescence assay; assay type: cell-based
[18] = Upregulation of PLK2 gene expression in human MDA-MB-231 cells assessed as fold change at 1 uM measured after 48 hrs by RNA-seq analysis relative to control; assay type: functional
Quadruplex DNA [19] = experiment: Binding affinity to CKIT-2 G4 DNA (unknown origin) assessed as thermal stability by measuring change in melting temperature at 400 uM […]; assay type: nucleic-acid assay
MDA-MB-231 [20] = experiment: Antitumor activity against human MDA-MB-231 cells xenografted in female Balb/c mouse assessed as reduction in tumor volume at 5 mg/kg, iv administered via tail vein every 2 days for 16 days relative to control; assay type: functional; parameters: scale not given: the % may be the effect or the level left; conditions: time 16 day
MDA-MB-231 [21] = experiment: Downregulation of ND1 gene expression in human MDA-MB-231 cells at 1 uM measured after 48 hrs by RNA-seq analysis; assay type: functional, cell-based
MDA-MB-231 [22] = experiment: Induction of autophagy in human MDA-MB-231 cells assessed as engulfment of damaged mitochondria by lysosomes by measuring lysosome-mitochondria colocalization at 0 to 1.5 uM measured after 48 hrs by LysoTracker Blue DND-22/MitoTracker Deep Red FM staining based confocal microscopic analysis; assay type: functional, cell-based; conditions: dose 0-1.5 µM
MDA-MB-231 [23] = experiment: Upregulation of glycolysis metabolic pathway in human MDA-MB-231 cells assessed as fold increase at 1.5 uM measured after 2 hrs by Seahorse XF24 analyzer relative to control; assay type: functional
[24] = Upregulation of TGFBR2 gene expression in human MDA-MB-231 cells assessed as fold change at 1 uM measured after 48 hrs by RNA-seq analysis relative to control; assay type: functional
MDA-MB-231 [25] = experiment: Disruption of energy metabolism in human MDA-MB-231 cells assessed as reduction in cellular energy production by measuring reduction in ATP production at 0 to 1.5 uM measured after 2 hrs by Seahorse XF24 analyzer; assay type: functional, cell-based; conditions: dose 0-1.5 µM
[26] = Upregulation of TNFSF10 gene expression in human MDA-MB-231 cells assessed as fold change at 1 uM measured after 48 hrs by RNA-seq analysis relative to control; assay type: functional
Quadruplex DNA [27] = experiment: Binding affinity to Telo21 G4 DNA (unknown origin) assessed as dissociation constant by ITC analysis; assay type: nucleic-acid assay
MDA-MB-231 [28] = experiment: Cytotoxicity against human MDA-MB-231 cells assessed as inhibition of cell growth incubated for 48 hrs in presence of TBHP by MTT assay; assay type: functional, cell-based; conditions: MDA-MB-231, 48 h
Quadruplex DNA [29] = experiment: Binding affinity to Bcl-2 G4 DNA (unknown origin) assessed as dissociation constant by ITC analysis; assay type: nucleic-acid assay
MDA-MB-231 [30] = experiment: Downregulation of ND6 gene expression in human MDA-MB-231 cells at 1 uM measured after 48 hrs by RNA-seq analysis; assay type: functional, cell-based
[31] = Upregulation of CCNB3 gene expression in human MDA-MB-231 cells assessed as fold change at 1 uM measured after 48 hrs by RNA-seq analysis relative to control; assay type: functional
Quadruplex DNA [32] = experiment: Binding affinity to hTERT G4 DNA assessed as dissociation constant by ITC analysis; assay type: nucleic-acid assay, Homo sapiens
MDA-MB-231 [33] = experiment: Antitumor activity against human MDA-MB-231 cells xenografted in female Balb/c mouse assessed as inhibition of tumor cell proliferation at 5 mg/kg, iv administered via tail vein every 2 days for 16 days by TUNEL assay; assay type: functional, organism-based; conditions: time 16.0 day
[34] = Drug localization in nucleus of telomerase-positive human MDA-MB-231 cells at 5 uM incubated for 10 mins by Hoechst 33342 staining based confocal microscopic analysis; assay type: ADME, subcellular; conditions: mda-mb-231, 10 min
[35] = Upregulation of MAPK13 gene expression in human MDA-MB-231 cells assessed as fold change at 1 uM measured after 48 hrs by RNA-seq analysis relative to control; assay type: functional

C[n+]1c(/C=C/c2c[nH]c3ccccc23)cc(/C=C2\Sc3ccccc3N2CCCN2CCC(C(F)(F)F)CC2)c2ccccc21.[I-]
Activity (MDA-MB-231 [1]): Dose-Dependent Effect
Activity (MDA-MB-231 [2]): Active
Activity [3]: Non-Toxic
Kd (DNA): 18.9 µM
Activity (MDA-MB-231 [4]): inactive
Activity (MDA-MB-231 [5]): Dose-Dependent Effect
Activity [6]: Non-Toxic
fold change (FC) [7]: >2
Activity (MDA-MB-231 [8]): Dose-Dependent Effect
Activity (MDA-MB-231 [9]): Dose-Dependent Effect
fold change (FC) [10]: >2
Activity [11]: Non-Toxic
ΔTm (Quadruplex DNA [12]): 0.72 °C
Activity [13]: Non-Toxic
Activity (MDA-MB-231 [14]): Active
fold change (FC) [15]: >2
fold change (FC) [16]: >2
Activity (Quadruplex DNA [17]): Active
fold change (FC) [18]: >2
ΔTm (Quadruplex DNA [19]): 2.45 °C
Activity (MDA-MB-231 [20]): 78.5%
Activity (MDA-MB-231 [21]): Active
Activity (MDA-MB-231 [22]): Active
fold change (FC) (MDA-MB-231 [23]): >0.8
fold change (FC) [24]: >2
Activity (MDA-MB-231 [25]): Active
fold change (FC) [26]: >2
Kd (Quadruplex DNA [27]): 3.28 µM
IC50 (MDA-MB-231 [28]): 0.67 µM
Kd (Quadruplex DNA [29]): 3.61 µM
Activity (MDA-MB-231 [30]): Active
fold change (FC) [31]: >2
Kd (Quadruplex DNA [32]): 1.14 µM
Activity (MDA-MB-231 [33]): Active
Drug uptake [34]: Active
fold change (FC) [35]: >2
